US20230293470A1, “APPLICATION OF THYROID HORMONES AND ITS ANALOGUES IN PREPARATION OF DRUGS FOR TREATING ALPHA-THALASSEMIA” (SHANGHAI SPH RARE DISEASE PHARMACEUTICAL CO., LTD., priority 2020, published 2023)

Assays:
[1] = test system: zeta-globin gene (hbae5) expression in zebrafish embryos; assay: Whole-mount mRNA in situ hybridization (WISH) of zeta-globin gene (hbae5) in zebrafish embryos; format: in vivo; details: 5 μmon, from 96 hours post fertilization, 24 hours treatment
Method: (§1) K562 cells were cultured in RPMI 1640 medium supplemented with 10% (v/v) fetal bovine serum; Hemin was dissolved into 0.2 mol/L NaOH solution, and the working concentration for treating K562 cells is 20 μmon; Triac, T3 and T4 were dissolved into dimethyl sulfoxide (DMSO), and the working concentration for treating K562 cells and zebrafish embryos is 20 μmon and 5 μmon, respectively.
During the development of zebrafish embryos, Triac, T3 and T4 were incubated with the zebrafish embryos at 96 hours post fertilization. After treatment with Triac, T3 and T4 for 24 hours, respectively, zebrafish embryos were fixed by 4% paraformaldehyde. The expression of zeta-globin gene (hbae5) was detected by Whole-mount mRNA in situ hybridization (WISH).

[2] = test system: zeta-globin gene (hbae5) expression in zebrafish embryos; assay: qPCR of zeta-globin gene (hbae5) expression in zebrafish embryos; format: in vivo; details: 5 μmon, from 96 hours post fertilization, 24 hours treatment
Method: as §1
During the development of zebrafish embryos, Triac, T3 and T4 were incubated with the zebrafish embryos at 96 hours post fertilization. After treatment with Triac, T3 and T4 for 24 hours, respectively, zebrafish embryos were collected. TRIzol reagent (Invitrogen) was used to extract total RNA, then a reverse transcription kit (ReverTra Ace, TOYOBO) was used to synthesize cDNA, and finally, a SYBRGreen Realtime PCR Master Mix (TOYOBO) reagent was used to perform quantitative PCR.
(§2) A quantitative PCR reaction system was as follows:
(§3) Conditions for a quantitative PCR reaction were as follows: • Hot start: 95° C., 10 minutes; • Denaturation: 95° C., 10 seconds; and • Annealing/stretching: 60° C., 30 seconds. • 40 cycles.
(§4) Dissolution Curve Analysis.

[3] = test system: zeta-globin gene (HBZ) expression in K562 cells; assay: qPCR of zeta-globin gene (HBZ) expression in hemin-treated K562 cells; format: cell-based, human; details: hemin 20 μmon plus Triac 20 μmon, 72 hours
Method: as §1
K562 cells were treated with hemin or hemin plus Triac for 72 hours, respectively, centrifugation was performed at 2000 rpm for 5 minutes to collect cells, a TRIzol reagent (Invitrogen) was used to extract total RNA, then a reverse transcription kit (ReverTra Ace, TOYOBO) was used to synthesize cDNA, and finally, a SYBR Green Realtime PCR Master Mix (TOYOBO) reagent was used to perform quantitative PCR.
as §2, §3, §4

Row | SMILES | induction of expression of zeta-globin gene (hbae5), WISH [1] | up-regulation of expression of zeta-globin gene (hbae5), qPCR [2] | up-regulation of expression of zeta-globin gene (HBZ), qPCR [3]
1 | N[C@@H](Cc1cc(I)c(Oc2ccc(O)c(I)c2)c(I)c1)C(=O)O [T3, 3,3′,5-Triiodo-L-thyronine] | significantly induce | 31 folds | –
2 | N[C@@H](Cc1cc(I)c(Oc2cc(I)c(O)c(I)c2)c(I)c1)C(=O)O [T4, 3,3′,5,5′-tetraiodothyronine] | significantly induce | 41 folds | –
3 | O=C(O)Cc1cc(I)c(Oc2ccc(O)c(I)c2)c(I)c1 [Triac, 2-[4-(4-hydroxy-3-iodophenoxy)-3,5-diiodophenyl] acetic acid] | significantly induce | 76 folds | 50.9 folds
